Assay: Dispersion of material on exposure to aqueous medium (visual)
Assay type: physicochemical
Conditions: dye not incorporated into a porous body

CCNc1ccc2ccccc2c1N=Nc1ccc(N=Nc2ccccc2)cc1 [Fat red 7B dye]
dispersion or solubility of the dye alone in water: particles of dye remained at the bottom of the vessel

— US20070225388A1, “Porous Bodies and Method of Production Thereof” (priority 2004, published 2007)
